Results taken from paper PMC9515143, “Phosphorylation of Jhd2 by the Ras-cAMP-PKA(Tpk2) pathway regulates histone modifications and autophagy” (Nature Communications, 2022).

Tests used:
Type in all cases: cell-based, budding yeast (Saccharomyces cerevisiae)
H3K4me3 [1] = assay: Western blot of H3K4me3 in yeast cells treated with glucose, 2-DG, FBP or pyruvate; details: WT cells, YP medium with different glucose concentrations, 0.5 hr
Description: (§1) To examine the effect of glucose on histone modifications, we grew yeast cells in 2% glucose-containing medium (YPD) until log phase. Cells were collected and then grown in the medium containing different concentrations of glucose for 0.5 hr.
PKA is activated by cyclic AMP (cAMP), which binds to its inhibitory subunit, Bcy1 and causes its dissociation (Fig. 1g). We thus examined H3K4me3 in deletion mutants of cAMP phosphodiesterases PDE1 and PDE2, which encode enzymes to hydrolyze cAMP and inactivate PKA[39],[40]. […] To test whether the Ras-cAMP-PKA pathway mediates glucose-induced H3K4me3, we examined H3K4me3 in ras1Δ and ras2Δ mutants. […] Ras1/2 can be activated by glycolysis-derived fructose-1,6-biphosphate (FBP) via Cdc25[6] (Fig. 1g).
(§2) To examine the effect of glucose on histone modifications, yeast cells were grown in 2% glucose-containing YPD (Yeast Extract Peptone Dextrose) medium until OD600 of 0.7–1.0. Cells were then collected, washed and resuspended in YP medium for 3 hr followed by treatment with different concentrations of glucose for 0.5 hr. For 1NM-PP1 (MCE, HY-13804) treatment, cells were grown in 2% YPD until OD600 of 0.7–1.0. Cells were then treated with 25 μM 1NM-PP1 for 0.5 hr. For FBP and pyruvate treatment, cells were pre-treated with Zymolase (Mpbio, 08320921) to increase the permeability. In brief, cells were grown in YPD medium until OD600 of 0.7–1.0, centrifuged and resuspended in 1 ml SB buffer (100 mM Sorbitol, 20 mM Tris pH 7.4). 10 μl Zymolase was then added and incubated at 30 °C for 15 min. The spheroplasts were washed and cultured in YPD medium containing different concentrations of FBP and pyruvate for 3 hr.
(§3) Cells were grown in 5 ml YPD or selective medium until OD600 of 0.7–1.0. Cells were harvested and lysed in alkaline lysis buffer (2 M NaOH, 8% 2-mercaptoethanol). After centrifugation, the protein pellet was resuspended in 150 μl 2×SDS-sample buffer. Protein samples were separated by 8–15% SDS-PAGE and transferred to PVDF membrane. The blots were probed with primary antibodies followed by incubation with horseradish peroxidase-labelled IgG secondary antibodies. The protein bands were visualized using the ECL Chemiluminescence Detection Kit (Bio-Rad, 170–5061) and quantified with Image J software (v.1.8.0).

H3K4me1 and H3K4me2 = assay: Western blot of H3K4me1 and H3K4me2 in yeast cells treated with glucose; details: WT cells, different glucose concentrations, 0.5 hr
Protocol: as §1, §2
Cells were grown in 5 ml YPD or selective medium until OD600 of 0.7–1.0. […] The protein bands were visualized using the ECL Chemiluminescence Detection Kit (Bio-Rad, 170–5061) and quantified with Image J software (v.1.8.0).

H3R2me2a = assay: Western blot of H3R2me2a after glucose; details: for H3R2me2a/H3: 0.5 hr
Protocol: as §2, §3
Supplementary Fi g . […] WT (a) and H2B-F LA G cel ls (b) wer e grown in YPD medium until OD600 of 0.7.
Cells were th en tr eat ed with YP medium supplement ed with differen t concentrations of glucos e for 0.5 hr. C ells were h ar vested an d the ex tract ed histones w er e anal yz ed by Western blots with indicat ed ant ibodies. To d et ect H2B monoubiquitination, H2B-F LAG strain w as used and d et ect ed with anti -F LAG ant ibody. Th e upper bands ar e monoubiquitinat ed H2B-F LAG. c E ff e c t of gl ucose on histone modifications in WT and ubp8∆ ubp10∆ mutant. WT and ubp8∆ ubp10∆ mut ant w er e gro wn in YPD medium unti l OD600 of 0.7. Cells wer e th en treated with YP medium supplem ent ed with di fferent con cen tr ations of gl u cos e fo r 0.5 hr. d Gluco se has no effect on the activit y of C O M PA S S . Spp1-TA P cells wer e grown in YPD medium until OD600 of 1.5. Cells were h arv est ed and then treat ed with YP + 0.05% glucos e and YP + 4% gl u cos e for 0.5 hr. Spp1-cont aining COMPASS (Spp1-CBP ) was then p urifi ed by tand em affinit y puri fi cati on ( TA P ) . Th e in vitro hi stone meth yltransferase assa y was p er form ed wit h purifi ed C O M PA S S and in vitro assembl ed nucl eosom es. e E ff e c t of the m TO R pathwa y on H3K4 meth ylation. […]
For Supplem ent ar y Fi g. 1b, e-g, i-k, d at a r ep res ent means ± SEM; n=3 i ndependent ex perim ents. For Supplem entar y Fi g. 1c, d ata represent means ± SEM; n=4 independent ex periments. Tw o -sided t-tests were used for statistical analysis.

H3K4me3 [2] = assay: Western blot of H3K4 methylation in mutants
Protocol: as §3

PKA subunits = assay: Expression of PKA subunits (Tpk1, Tpk2, Tpk3, Bcy1) after glucose, Western blot; details: for Tpk2/GAPDH / Tpk3/GAPDH: normalized to Tpk1/GAPDH at same glucose; for Bcy1/GAPDH: normalized to Bcy1/GAPDH at 0.05% glucose
Protocol: as §3
Supplementary Fi g . 11 Analysis of PKA subunits subcellular localization, expression and Bcy1 dissociation kinetics. […]
For Supplem ent ar y Fi g. 11 b, dat a r ep res ent m ean s ± SEM; n=3 independent ex perim ents. Tw o -sid ed t-t ests were us ed for statistical

H3K79me3 = assay: ChIP-qPCR of H3K79me3/H3 (rebuttal); details: 0.05% versus 2% glucose

OC[C@H]1OC(O)[C@H](O)[C@@H](O)[C@@H]1O (stereo partly shown) [glucose]
H3K4me3 level (H3K4me3 [1]): induced H3K4me3 in a dose-dependent manner | H3K4me1 and H3K4me2 level (H3K4me1 and H3K4me2): had no effect on H3K4me1 and H3K4me2 | H3R2me2a/H3 (H3R2me2a; 0.5% glucose, relative to 0.05% glucose = 1, replicate 1): 1.016 | H3R2me2a/H3 (H3R2me2a; 0.5% glucose, relative to 0.05% glucose = 1, replicate 2): 0.8082 | H3R2me2a/H3 (H3R2me2a; 0.5% glucose, relative to 0.05% glucose = 1, replicate 3): 1.063 | H3R2me2a/H3 (H3R2me2a; 1% glucose, relative to 0.05% glucose = 1, replicate 1): 1.0068 | H3R2me2a/H3 (H3R2me2a; 1% glucose, relative to 0.05% glucose = 1, replicate 2): 0.9832 | H3R2me2a/H3 (H3R2me2a; 1% glucose, relative to 0.05% glucose = 1, replicate 3): 1.068 | H3R2me2a/H3 (H3R2me2a; 2% glucose, relative to 0.05% glucose = 1, replicate 1): 0.9685 | H3R2me2a/H3 (H3R2me2a; 2% glucose, relative to 0.05% glucose = 1, replicate 2): 0.8294 | H3R2me2a/H3 (H3R2me2a; 2% glucose, relative to 0.05% glucose = 1, replicate 3): 0.8742 | H3R2me2a/H3 (H3R2me2a; 4% glucose, relative to 0.05% glucose = 1, replicate 1): 1.047 | H3R2me2a/H3 (H3R2me2a; 4% glucose, relative to 0.05% glucose = 1, replicate 2): 0.9174 | H3R2me2a/H3 (H3R2me2a; 4% glucose, relative to 0.05% glucose = 1, replicate 3): 0.9548 | H3R2me2a level (H3R2me2a; glucose 0.5 hr, Western blot): had no significant effect on H3R2me2a | H3K4me3 level in chd1Δ mutant (H3K4me3 [2]; chd1Δ, different glucose concentrations, 0.5 hr, Western blot (rebuttal)): glucose-induced | H3K4me3 level, WT versus tpk2Δ (H3K4me3 [2]; increasing glucose concentrations, Western blot): induced H3K4me3 in WT but not tpk2Δ mutant | Tpk2/GAPDH (PKA subunits; 0.05% glucose, replicate 1): 1.627 | Tpk3/GAPDH (PKA subunits; 0.05% glucose, replicate 1): 0.4263 | Tpk2/GAPDH (PKA subunits; 0.05% glucose, replicate 2): 1.616 | Tpk3/GAPDH (PKA subunits; 0.05% glucose, replicate 2): 0.1439 | Tpk2/GAPDH (PKA subunits; 0.05% glucose, replicate 3): 1.728 | Tpk3/GAPDH (PKA subunits; 0.05% glucose, replicate 3): 0.2447 | expression of PKA subunits (PKA subunits; 0.05%, 0.5%, 2% glucose, Western blot): not significantly altered by glucose | Bcy1/GAPDH (PKA subunits; 0.5% glucose, replicate 1): 0.8311 | Bcy1/GAPDH (PKA subunits; 0.5% glucose, replicate 2): 0.7213 | Bcy1/GAPDH (PKA subunits; 0.5% glucose, replicate 3): 1.191 | Tpk2/GAPDH (PKA subunits; 0.5% glucose, replicate 1): 1.363 | Tpk3/GAPDH (PKA subunits; 0.5% glucose, replicate 1): 0.4332 | Tpk2/GAPDH (PKA subunits; 0.5% glucose, replicate 2): 1.712 | Tpk3/GAPDH (PKA subunits; 0.5% glucose, replicate 2): 0.3492 | Tpk2/GAPDH (PKA subunits; 0.5% glucose, replicate 3): 1.416 | Tpk3/GAPDH (PKA subunits; 0.5% glucose, replicate 3): 0.1641 | Bcy1/GAPDH (PKA subunits; 2% glucose, replicate 1): 1.059 | Bcy1/GAPDH (PKA subunits; 2% glucose, replicate 2): 0.8633 | Bcy1/GAPDH (PKA subunits; 2% glucose, replicate 3): 0.977 | Tpk2/GAPDH (PKA subunits; 2% glucose, replicate 1): 1.492 | Tpk3/GAPDH (PKA subunits; 2% glucose, replicate 1): 0.565 | Tpk2/GAPDH (PKA subunits; 2% glucose, replicate 2): 1.634 | Tpk3/GAPDH (PKA subunits; 2% glucose, replicate 2): 0.1809 | Tpk2/GAPDH (PKA subunits; 2% glucose, replicate 3): 1.419 | Tpk3/GAPDH (PKA subunits; 2% glucose, replicate 3): 0.2075 | H3K79me3 occupancy at PAU8, DRS2 and ATG5 (H3K79me3): glucose significantly increased H3K79me3 at H2Bub-dependent genes (PAU8, DRS2)
